The numbers were not newly measured in patent US12544428B2, “Controlled-release CNP agonists with reduced side-effects” (ASCENDIS PHARMA GROWTH DISORDERS A/S, priority 2016, dated 2026), which cites them from elsewhere.

Bridge positions count the residues as written; N and C are the ends. Ends that are not written are not given here.

For data set [1] the following is noted: after iv administration; cited from earlier work.
For data set [2] the following is noted: Phase 1 study, healthy volunteers; cited from earlier work.

Take `CC[C@H](C)[C@@H]1NC(=O)[C@H](CCCNC(=N)N)NC(=O)[C@H](CC(=O)O)NC(=O)[C@H](CC(C)C)NC(=O)[C@H](CCCCN)NC(=O)[C@H](CC(C)C)NC(=O)CNC(=O)[C@H](Cc2ccccc2)NC(=O)[C@@H](NC(=O)CNC(=O)[C@H](CCCCN)NC(=O)[C@H](CO)NC(=O)[C@H](CC(C)C)NC(=O)CN)CSSC[C@@H](C(=O)O)NC(=O)CNC(=O)[C@H](CC(C)C)NC(=O)CNC(=O)[C@H](CO)NC(=O)[C@H](CCSC)NC(=O)[C@H](CO)NC(=O)CNC1=O` [CNP-22]: the half-life in data set [1] is given as 2 min.

For “BMN-111: a CNP variant with increased NEP resistance in development for the treatment of achondroplasia (PGQEHPNARKYKGANKKGLSKGCFGLKLDRIGSMSGLGC; disulfide 23-39; chains of the INN, looked up)”, the hypotension result in data set [2] is reported as “mild hypotension”.

The half-life is the time needed for the level to fall by half in the phase considered.
